From US11014953B2, “Trigger-activatable metabolic sugar precursors for cancer-selective labeling and targeting” (priority 2015, dated 2021)
Peptide text beside a SMILES is read from it. * marks the point of attachment. Cbz = O=C(OCc1ccccc1)*

Tests used:
[1] = test system: LS174T colon cancer cells; experiment: Metabolic labeling of LS174T cells with azido-sugars, azides detected by DBCO-Cy5 (confocal imaging, flow cytometry); format: cell-based; details: for Labeling efficiency of E-S on co-incubation with inhibitor: LS174T cells co-incubated with E-S and inhibitor
Protocol: General procedures for confocal imaging of azido-sugar labeled cells. Cells were seeded onto coverslips in a 6-well plate at a cell density of 40 k/well. Ac4ManAz or Ac3ManAz derivatives were added with a final concentration of 50 μM and the cells were incubated at 37° C. for 72 h. The medium was removed and washed with PBS for three times. DBCO-Cy5 (50 μM) in Opti-MEM was then added and the cells were incubated for another 1 h. Then the medium was removed and the cells were washed with PBS for three times. 4% paraformaldehyde (PFA) solution was added to fix the cells for 10 min, followed by staining of cell nucleus with DAPI (2 μg/mL) for 10 min. The coverslips were mounted on microscope slides with the addition of ProLong Gold antifade reagent, and the prepared sample was stored in dark for imaging.
General procedures for flow cytometry analysis of azido-sugar labeled cells. Cells were seeded onto coverslips in a 6-well plate at a cell density of 40 k/well. Ac4ManAz or Ac3ManAz derivatives were added and incubated with cells for 72 h. After removal of medium and multiple washing steps, DBCO-Cy5 in opti-MEM was added and incubated with cells at 37° C. for 1 h. The opti-MEM was then removed and cells were washed with PBS for three times. Cells were lifted by incubating with trypsin solution (1 mL) at 37° C. for 3 min and transferred to test tubes with addition of 4% PFA solution (0.5 mL). Twenty thousand cells per sample were analyzed by flow cytometry and data analysis was performed on the FCS Express software.
Ac3ManAzNB mediated controlled cell labeling. LS174T cells were seeded onto coverslips in a 6-well plate at a cell density of 40 k/well. Ac3ManAzNB with a final concentration of 50 μM was added. […] Cells without UV irradiation were continuously incubated for 72 h. Cell samples for confocal imaging and flow cytometry were then prepared following the above-mentioned procedures.
Ac3ManAzHQ mediated controlled cell labeling. LS174T colon cancer cells or Caco-2 colon cancer cells or human fibroblast IMR90 cells were seeded onto coverslips in a 6-well plate at a cell density of 40 k/well and allowed to attach for overnight. Ac3ManAzHQ with a final concentration of 50 μM was added, followed by the addition of curcumin with a final concentration of 50 μM. Cells treated with PBS or Ac3ManAzHQ only were used as control. After 72-h incubation, cell samples for confocal imaging and flow cytometry were prepared following the above-mentioned procedures.
(§1) E-S mediated controlled cell labeling in vitro. LS174T colon cancer cells or human fibroblast IMR90 cells were seeded onto coverslips in a 6-well plate at a cell density of 40 k/well. E-S with a final concentration of 50 μM was added, followed by the addition of either TSA (1 μM) or Z-FY-CHO (50 μM). Cells treated with PBS or E-S only were used as the control. After 72-h incubation, the medium was removed and cell samples for confocal imaging and GE-Analyzer measurements were prepared similarly to above-mentioned procedures.

LS174T cells [2] = experiment: Western blot analysis of LS174T cells treated with azido-sugars; format: cell-based
Protocol: Western blot analysis of cells treated with azido-sugars. LS174T cells were seeded onto cell culture flasks (25 cm^2 growth area) at a density of 1×10^6 cells per plate in 5 mL of media. Different azido-sugars were added and incubated with cells for 72 h. The cells were washed with PBS twice and harvested from the flasks using a cell scraper. Cells were pelleted by centrifugation at 1000 rpm for 5 min and re-suspended in 200 μL of lysis buffer (1% SDS, 100 mM Tris.HCl, pH 7.4) containing 1 tablet protease inhibitor (EDTA-free). The lysate was incubated at 4° C. for 30 min, followed by centrifugation at 3000 rcf for 10 min to remove insoluble debris. The total concentration of soluble protein in each sample was determined by bicinchoninic acid (BCA) assay and adjusted to the same concentration. Then 20 μL of the lysate was taken out and incubated with phosphine-PEG3-biotin (2 μL, 5 mM in PBS) at 37° C. for 6 h. Loading buffer was added to each sample and samples were loaded onto 10% SDS-PAGE gel after heating at 95° C. After running the gel for 100 min, proteins were transferred to Hybond P membrane, followed by blocking of the membrane with 5% bovine serum albumin (BSA) in TBST (50 mM Tris.HCl, 150 mM NaCl, 0.1% Tween 20, pH 7.4) for 2 h. The membrane was then incubated with streptavidin-HRP (diluted 1:2000 in TBST) overnight at 4° C., rinsed with TBST for three times and developed by ECL Western Blotting Substrate. For fluorescent visualization of protein bands, 20 μL of cell lysate was directly incubated with DBCO-Cy3 solution for 3 h. After the gel running and membrane transfer, protein bands were visualized using an Image Quant LAS 4010 system with a Cy3/Cy3 (excitation/emission) channel.

[3] = test system: subcutaneous LS174T tumors; experiment: In vivo tumor labeling after intratumoral injection of azido-sugars, DBCO-Cy5 i.v.; set-up: species or system athymic nude mice; details: for In vivo Cy5 fluorescence intensity of pretreated left tumors vs control right tumors: 24 h p.i. of i.v. DBCO-Cy5; for Ex vivo difference in Cy5 FI between treated tumors and control tumors: ex vivo imaging of tumors; for Western blot of tumors (azido-modified glycoproteins): intratumoral once daily for three days, tumors harvested 24 h p.i.; for Cy5 fluorescence of tumor sections (confocal imaging): tumor sections after ex vivo imaging
Protocol: In vivo tumor labeling of Ac4ManAz, Ac3ManAzEt, and Ac3ManAzNB. LS174T tumor models were established on 6 week-old athymic nude mice by subcutaneous injection of LS174T colon cancer cells (1.5 million) in HBSS/matrigel (1/1, v/v) to both flanks. When the tumors grew to 5-6 mm, Ac4ManAz or Ac3ManAzEt or Ac3ManAzNB (25 mM, 20 μL) was injected into the left tumors once daily for three days while the same amount of PBS was injected to the right tumors as control (N=3 per group). At 24 h post the last injection, DBCO-Cy5 (5 mg/kg) was i.v. injected and its biodistribution was monitored via in vivo fluorescence imaging. Prior to imaging, nude mice were placed on the sample stage equipped with anesthesia input and output ports, and imaged by the Maestro In-Vivo Fluorescence Imaging System. The excitation filter of 575-605 nm was used. The tunable emission filter was automatically stepped in 10-nm increments from 630 to 850 nm with an exposure time of 50 ms for images taken at each wavelength. Collected images were analyzed by the Maestro software, which uses spectral unmixing algorithms to subtract autofluorescence from Cy5 signals. Tumors and major organs were harvested from mice at 24 h post injection of DBCO-Cy5. Ex vivo images were collected similarly using the Maestro system. Fluorescence intensity at selected ROIs was quantified using Maestro imaging software. All values were presented as means±standard deviation (n=3).
Western blot analysis of tissues. Tumors and organs harvested from azido-sugar treated mice were transferred into glass tubes containing 2 mL of lysis buffer (1% SDS, 100 mM Tris HCl, pH 7.4), homogenized, and incubated at 4° C. for 30 min. The lysates were then centrifuged at 3000 rcf for 10 min to remove the insoluble debris. Total soluble protein concentrations were determined by BCA assay and adjusted to 5 mg/mL for each group. The rest of procedures were the same as the above-mentioned western blot analysis of cells.
Confocal imaging of tumor tissue sections. After ex vivo imaging, tumors were directly frozen in O.C.T. compound and sectioned on a cryostat (Leica CM3050S) with a thickness of 6-8 μm. DAPI in PBS (2 μg/mL) was added onto the tissue-attaching microscope slides to stain cell nucleus. After 10 min, DAPI solution was removed and tissues were washed with PBS for three times. Coverslips were mounted on the microscope slides with the addition of ProLong Gold antifade reagent, and the prepared sample was stored in dark for confocal imaging.

LS174T cells [4] = experiment: Uptake mechanism of DBCO-Cy5 in E-S pretreated LS174T cells; format: cell-based
Protocol: Uptake mechanism of DBCO-Cy5 or D-D in vitro. LS174T cells were seeded onto a tissue culture dish with cover glass bottom, and incubated with E-S (50 μM) for three days. After multiple washing with PBS, Lysotracker green in fresh medium was added and incubated for 1 h. Then DBCO-Cy5 was added and cells were further incubated for 1 h. Hoechst 33342 (10 μg/mL) and CellMask orange plasma membrane stain (1 μg/mL) were added to stain cell nucleus and cell membrane, respectively for 10 min. After removing the medium and washing with PBS, cells were further incubated at 37° C. At different time points (1 h, 3 h, 6 h, 12 h, and 24 h), cells were imaged under a fluorescence microscope to monitor the uptake of DBCO-Cy5. Cells without E-S pretreatment were used as control. For live cell imaging of D-D treated cells, CellMask deep red plasma membrane stain was used to stain cell membrane and lysosomes were not stained to avoid the interference over fluorescence signals of D-D.

[5] = test system: cellular HDAC/CTSL activity; experiment: Inhibitory effect of TSA and Z-FY-CHO on cellular HDAC/CTSL activity (Naph-Lys reporter); format: cell-based
Protocol: Detection of cellular HDAC/CTSL activity. Cells were seeded in a 24-well plate at a cell density of 8 k/well, and were allowed to attach for overnight. Naph-Lys (50 μM) in OptiMEM was added and incubated with cells for different time (30 min, 1 h, 2 h, and 4 h). After removal of the OptiMEM and washing with PBS twice, cells were fixed with 4% PFA for 10 min and stained with DAPI (2 ng/mL) for 10 min. Average fluorescence intensity of cells were measured on a GE-Analyzer using DAPI and FITC channels. The DAPI channel was used for determining cell number per well. The FITC channel was used to determine the total fluorescence intensity of released Naph-NH2 per well. Data were presented with the average fluorescence intensity per cell.
Inhibitory effect of TSA and Z-FY-CHO on cellular HDAC/CTSL activity. TSA and Z-FY-CHO are known to be the inhibitor of HDAC and CTSL, respectively. To study their inhibitory effect, cells were seeded in a 24-well plate at a cell density of 8 k/well, and were allowed to attach for overnight. Cells were then divided into 4 groups: group 1 cells were added Naph-Lys (50 μM); group 2 cells were added Naph-Lys (50 μM)+TSA (1 μM); group 3 cells were added Naph-Lys (50 μM)+Z-FY-CHO (20 μM); group 4 cells were added PBS as negative control. […] Average fluorescence intensity of cells were measured on a GE-Analyzer using DAPI and FITC channels.

[6] = test system: MDA-MB-231 breast cancer cells; experiment: E-S mediated in vitro labeling of MDA-MB-231 cells; format: cell-based
Protocol: as §1, with “in vitro” for “controlled cell”, “of MDA-MB-231 cells. MDA-MB-231 breast” for “in vitro. LS174T colon”, “cancer” for “cancer cells or human fibroblast IMR90”, “as” for “as the”, “IN cell Analyzer” for “GE-Analyzer”, “following the” for “similarly to”

For `CCOC1O[C@H](COC(C)=O)[C@@H](OC(C)=O)[C@H](OC(C)=O)[C@@H]1NC(=O)CN=[N+]=[N-]` (stereo partly drawn) [Ac3ManAzEt], the “Cy5 fluorescence on the cell surface (CLSM)” value (shortened to “Cy5 fluorescence … (CLSM)”) ([1]; LS174T cells, 50 μM azido-sugar three days (72 h), then DBCO-Cy5 1 h) was “negligible Cy5 fluorescence on the cell surface”, the “Western blot of azido-glycoproteins (biotinylated with phosphine-PEG3-biotin)” value (LS174T cells [2]; 72 h) was “only two endogenous biotinylated proteins” and the “In vivo Cy5 fluorescence intensity of pretreated left tumors vs control right tumors” value [3] was “negligible Cy5 retention enhancement”. The “Ex vivo difference in Cy5 FI between treated tumors and control tumors” value [3] was “no significant difference”, the “Western blot of tumors (azido-modified glycoproteins)” value [3] was “the same endogenous protein bands as PBS group” and the “Cy5 fluorescence of tumor sections (confocal imaging)” value [3] was “negligible Cy5 fluorescence”.
For `CC(=O)OC[C@H]1OC(OCc2ccccc2[N+](=O)[O-])[C@@H](NC(=O)CN=[N+]=[N-])[C@@H](OC(C)=O)[C@@H]1OC(C)=O` (stereo partly drawn) [Ac3ManAzNB], the “Cy5 fluorescence … (CLSM)” value ([1]; LS174T cells, three days, with UV irradiation (10 min, 10 mW/cm^2)) was “strong Cy5 fluorescence”, the “Cy5 fluorescence … (CLSM)” value ([1]; LS174T cells, three days, without UV irradiation) was “negligible Cy5 fluorescence on cell surface” and the “Cy5 fluorescence by flow cytometry” value ([1]; LS174T cells, with UV irradiation compared with Ac3ManAzNB only) was “significantly enhanced Cy5 fluorescence”. For the same molecule, the “Western blot of azido-glycoproteins” value (LS174T cells [2]; with UV) was “a series of protein bands”, the “Western blot of azido-glycoproteins” value (LS174T cells [2]; without UV) was “the same two endogenous biotinylated protein bands as PBS group” and the “In vivo Cy5 fluorescence intensity of pretreated left tumors vs control right tumors” value [3] was “negligible Cy5 retention enhancement”. For the same molecule, the “Ex vivo difference in Cy5 FI between treated tumors and control tumors” value [3] was “no significant difference”, the “Western blot of tumors (azido-modified glycoproteins)” value [3] was “the same endogenous protein bands as PBS group” and the “Cy5 fluorescence of tumor sections (confocal imaging)” value [3] was “negligible Cy5 fluorescence”.
`CC1(C)C(/C=C/C=C/C=C2/N(CCCCCC(=O)NCCC(=O)N3Cc4ccccc4C#Cc4ccccc43)c3ccc(S(=O)(=O)O)cc3C2(C)C)=[N+](CCCS(=O)(=O)[O-])c2ccc(S(=O)(=O)O)cc21` [DBCO-Cy5] was tested, and the “Further incubation time at which DBCO-Cy5 completely disappeared from the cell membrane” value (LS174T cells [4]; E-S pretreated LS174T cells) was 12 h and the “Cy5 signal in control cells without E-S pretreatment (passive uptake)” value (LS174T cells [4]; LS174T, DBCO-Cy5 1 h) was “Negligible Cy5 signal”.
`CC(/C=C/C(=O)NO)=C\[C@@H](C)C(=O)c1ccc(N(C)C)cc1` [TSA, Trichostatin A] was tested, and the “Labeling efficiency of E-S on co-incubation with inhibitor” value [1] was “greatly reduced”, the “Turn-on fluorescence intensity of Naph-Lys in the presence of the inhibitor” value [5] was “greatly decreased” and the “Labeling efficiency of E-S in the presence of inhibitor” value [6] was “significantly decreased the labeling efficiency”.
For `O=C[C@H](Cc1ccc(O)cc1)NC(=O)[C@H](Cc1ccccc1)NC(=O)OCc1ccccc1` [Z-FY-CHO] (Cbz-Phe-Tyr-aldehyde), the “Labeling efficiency of E-S on co-incubation with inhibitor” value [1] was “greatly reduced”, the “Turn-on fluorescence intensity of Naph-Lys in the presence of the inhibitor” value [5] was “greatly decreased” and the “Labeling efficiency of E-S in the presence of inhibitor” value [6] was “significantly decreased the labeling efficiency”.
For `COc1cc(/C=C/C(=O)CC(=O)/C=C/c2ccc(O)c(OC)c2)ccc1O` [curcumin], the “Labeling efficiency of Ac3ManAzHQ on co-incubation with NQO1 inhibitor” value ([1]; LS174T cells, compared with Ac3ManAzHQ only) was “significant reduction of labeling efficiency”.
